Data: US5298521A, “1,5-diphenyl-3-pyrazolylalkyl-N-hydroxydithiocaramates, compositions and use” (Ortho Pharmaceutical Corporation, priority 1993, dated 1994)

Columns and labels:
[1] = molecular target: T1, RBL-1 cell cyclooxygenase (Rattus norvegicus, UniProt Q63921); assay: RBL-1 cell cyclooxygenase, cell homogenate supernatant (Procedure II); type: biochemical; settings: RBL-1 homogenate; for inhibition at 3 µM: read-out: PROC. II % INHIBITION CO; for IC50: read-out: PROC. II IC50 CO
T1 construct: the supernatant was saved as the source of enzymes; endogenous in cells; host or cells: RBL-1 rat basophilic leukemia cells, homogenate supernatant
T1 sequence (Q63921 27-602): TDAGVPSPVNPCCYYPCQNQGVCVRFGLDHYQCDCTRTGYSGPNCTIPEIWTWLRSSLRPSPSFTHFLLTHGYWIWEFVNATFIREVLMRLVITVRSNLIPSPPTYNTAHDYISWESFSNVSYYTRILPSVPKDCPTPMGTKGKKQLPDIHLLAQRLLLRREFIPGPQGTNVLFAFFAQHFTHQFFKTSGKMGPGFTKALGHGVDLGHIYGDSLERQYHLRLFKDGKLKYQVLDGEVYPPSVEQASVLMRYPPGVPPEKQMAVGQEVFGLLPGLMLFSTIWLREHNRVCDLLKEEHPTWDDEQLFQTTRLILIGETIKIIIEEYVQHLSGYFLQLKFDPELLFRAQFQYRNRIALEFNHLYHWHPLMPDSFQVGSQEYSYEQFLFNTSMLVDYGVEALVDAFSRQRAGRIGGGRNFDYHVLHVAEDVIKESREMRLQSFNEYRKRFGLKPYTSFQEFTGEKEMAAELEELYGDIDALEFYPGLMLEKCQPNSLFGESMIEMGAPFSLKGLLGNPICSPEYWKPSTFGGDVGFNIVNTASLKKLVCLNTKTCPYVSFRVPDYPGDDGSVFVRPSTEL
Description: RBL-1 cell 5-lipoxygenase and cyclooxygenase
Rat basophilic leukemia cells (RBL-1; 5×10^7 viable cells/mL) were disrupted by homogenization on ice (four 20 sec bursts) with a Brinkman polytron. Complete cell breakage was verified microscopically. The homogenate was then centrifuged at 10,000×g for 48 minutes at 4° C. The pellet was discarded and the supernatant was saved as the source of enzymes. The supernatant was pre-incubated for five minutes at 37° C. in the presence of 2 mM of CaCl2 and compound or vehicle (1% DMSO). The conversion of AA into 5-LO products was initiated by adding 10 μL (50 μCi) of 1-^14 C-AA to each tube and incubated at 37° C. for 20 minutes. The reaction was stopped by adjusting the pH of each sample to 3 to 3.5 with 2M formic acid. Samples were extracted with three volumes of chloroform to isolate the products of 5-LO formed during the reaction. Fractions were dried under nitrogen, then resuspended in 40 μL of chloroform and spotted onto silica gel HL plates. The plates were developed in A-9 solvent. The dried plates were analyzed using a Bioscan Imaging TLC scanner to determine the percentage of radiolabelled AA converted to 5-HETE in each sample.

[2] = molecular target: T2, Sheep seminal vesicle cyclooxygenase (Ovis aries, UniProt P05979); assay: Sheep seminal vesicle cyclooxygenase (Procedure I); type: biochemical; settings: read-out: PROC. I % INHIB CO
T2 construct: Sheep seminal vesicle (SSV) cyclooxygenase (95% pure); purchased Biomol (Plymouth Meeting, Pa.); host or cells: sheep seminal vesicle
T2 sequence (P05979 25-600): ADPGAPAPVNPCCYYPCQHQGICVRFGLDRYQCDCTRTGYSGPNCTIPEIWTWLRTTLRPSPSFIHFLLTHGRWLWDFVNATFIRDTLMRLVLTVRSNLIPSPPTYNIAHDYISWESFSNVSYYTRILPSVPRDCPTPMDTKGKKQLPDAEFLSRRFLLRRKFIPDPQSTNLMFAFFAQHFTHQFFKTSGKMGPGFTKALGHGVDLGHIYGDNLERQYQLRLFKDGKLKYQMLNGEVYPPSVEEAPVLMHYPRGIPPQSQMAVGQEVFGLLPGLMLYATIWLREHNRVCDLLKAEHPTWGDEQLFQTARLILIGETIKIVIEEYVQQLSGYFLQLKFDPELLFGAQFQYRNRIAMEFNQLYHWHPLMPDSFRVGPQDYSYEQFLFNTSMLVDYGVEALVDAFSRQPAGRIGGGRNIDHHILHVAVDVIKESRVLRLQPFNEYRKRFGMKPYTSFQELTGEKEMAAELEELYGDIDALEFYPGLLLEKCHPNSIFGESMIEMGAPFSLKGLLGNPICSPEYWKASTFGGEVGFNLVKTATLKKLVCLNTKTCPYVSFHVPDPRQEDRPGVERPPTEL
Description: Sheep seminal vesicle cyclooxygenase Sheep seminal vesicle (SSV) cyclooxygenase (95% pure, prostaglandin endoperoxide synthase, EC 1.14.99.1 specific activity 24 units/mg protein) obtained as a lyophilized powder from Biomol (Plymouth Meeting, Pa.) was reconstituted at a concentration of 59 mg/mL in Hanks' Balanced Salt Solution (HBSS). The enzyme was divided into 200 μL aliquots, snap frozen with liquid N2, and stored at -70° C. unitl immediately prior to use. Measurements of CO activity were carried out in polypropylene tubes containing 495 μL of HBSS to which was added 5 μL of inhibitor or dimethylsulfoxide (DMSO; vehicle control) and 6 μL of SSV CO solution. The tubes were mixed on a vortex shaker, preincubated for 5 min at 37° C. prior to the initiation of the reaction. The reaction was started by the addition of [^14 C]-arachidonic acid (1-^14 C-AA, Amersham, Arlington Heights, Il) in 10 μL of methanol. Tubes were again vortexed and incubated in a water bath for 20 minutes after which the tubes were removed and the reaction stopped by acidification with the addition of 1 mL 2M formic acid. Lipophilic products were extracted with 3 mL chloroform and concentrated to dryness under N2. Each pellet was reconstituted with 40 μL of chloroform and spotted on a Whatman Silicon thin-layer chromatography plate and developed in a chromatography tank containing A-9 solvent (11:5:2:1 V:V:V:V, ethyl acetate:trimethylpentane:acetic acid:double distilled-H2 O). Radioactive cyclooxygenase products (prostaglandin D2, prostaglandin E2, etc.) were measured using a Bioscan System 200 Imaging Scanner. Inhibition of enzyme activity was calculated by comparing the areas under the curve produced in the presence or absence of test compound.

Row | SMILES | inhibition at 3 µM [1] | IC50 [1] | inhibition at 3 µM [2]
1 | COc1ccc(-n2nc(CSC(=S)N(O)C(C)C)c(Cl)c2-c2ccc(Cl)cc2)cc1 [1-D] | 0% | 1670 nM | 31%
2 | COc1ccc(-n2nc(CSC(=S)N(O)C(C)C)cc2-c2ccc(C)cc2)cc1 [1-G] | 30% | 30 nM | 36%
3 | COc1ccc(-n2nc(CSC(=S)N(C)O)c(Cl)c2-c2ccc(C)cc2)cc1 [1-H] | 95% | – | 39%
4 | COc1ccc(-n2nc(CSC(=S)N(O)C(C)C)c(Br)c2-c2ccc(Cl)cc2)cc1 [1-E] | 0% | 1960 nM | 0%
5 | COc1ccc(-n2nc(CSC(=S)N(C)O)c(Cl)c2-c2ccc(Cl)cc2)cc1 [1-C] | 75% | – | 46%
6 | COc1ccc(-n2nc(CSC(=S)N(O)C(C)C)cc2-c2ccc(Cl)cc2)cc1 [1-B] | 100% | 8070 nM | 39%
